Results as given in US9353090B2, “Heterocyclic carboxylic acids as activators of soluble guanylate cyclase” (Boehringer Ingelheim International GmbH, priority 2014, dated 2016).
In brackets after ≈: the same amount, converted by molar mass.

Tests used:
physchem = conditions: kinetic from dmso stock
[1] = Human liver microsome (HLM) metabolic stability assay; type: in vitro ADME; conditions: human liver microsomes
In short: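 Compound at 1 uM incubated with human liver microsomes at 37° C. for 60 min after NADPH addition. Aliquots quenched in cold acetonitrile at 0, 5, 15, 30 and 60 min and analysed by LC/MS/MS. t1/2 from ln(% remaining) vs time slope; CLint, CLh and % Qh derived from it (n=1).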

[2] = target: human soluble guanylate cyclase alpha 1 and beta 1 subunits (sGC) (Homo sapiens (Human), UniProt Q02108+Q02153); assay: sGC cellular activator assay (cGMP, HTRF), in the presence and absence of 50% human serum; type: cell-based; conditions: CHO cells stably expressing human sGC alpha 1/beta 1, preincubated with 40 microM ODQ; cGMP by HTRF; Table 2 does not state whether with or without 50% human serum
In short: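 Heme-oxidized conditions: ODQ (40 microM, 1 h) pretreatment of CHO cells stably expressing human α1/β1 sGC, in buffer containing 0.1% BSA and IBMX.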

[3] = pH 2.2, aqueous buffer, Solubility (pH 2.2)
[4] = pH 4.5, aqueous buffer, Solubility (pH 4.5)
[5] = pH 6.8, aqueous buffer, Solubility (pH 6.8)

Chain of human soluble guanylate cyclase alpha 1 and beta 1 subunits (sGC) (Q02108 whole entry partner): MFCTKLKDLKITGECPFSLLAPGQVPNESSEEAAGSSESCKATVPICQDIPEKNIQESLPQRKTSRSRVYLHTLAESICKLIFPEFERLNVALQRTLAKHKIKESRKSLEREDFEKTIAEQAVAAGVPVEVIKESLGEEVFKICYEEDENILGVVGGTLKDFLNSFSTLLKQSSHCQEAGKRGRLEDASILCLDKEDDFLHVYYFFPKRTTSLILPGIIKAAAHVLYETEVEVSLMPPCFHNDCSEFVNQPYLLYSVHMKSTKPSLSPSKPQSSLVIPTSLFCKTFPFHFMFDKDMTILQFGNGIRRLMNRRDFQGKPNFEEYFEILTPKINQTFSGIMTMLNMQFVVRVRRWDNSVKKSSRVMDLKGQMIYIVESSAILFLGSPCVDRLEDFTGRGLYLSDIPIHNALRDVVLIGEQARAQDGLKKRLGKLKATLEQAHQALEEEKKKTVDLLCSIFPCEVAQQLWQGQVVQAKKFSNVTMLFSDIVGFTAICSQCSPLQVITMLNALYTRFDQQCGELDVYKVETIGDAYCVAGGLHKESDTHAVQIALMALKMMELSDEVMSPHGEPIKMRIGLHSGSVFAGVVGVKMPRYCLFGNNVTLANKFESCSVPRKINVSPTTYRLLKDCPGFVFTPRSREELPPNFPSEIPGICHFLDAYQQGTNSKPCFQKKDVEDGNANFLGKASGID
Chain of human soluble guanylate cyclase alpha 1 and beta 1 subunits (sGC) (Q02153 whole entry): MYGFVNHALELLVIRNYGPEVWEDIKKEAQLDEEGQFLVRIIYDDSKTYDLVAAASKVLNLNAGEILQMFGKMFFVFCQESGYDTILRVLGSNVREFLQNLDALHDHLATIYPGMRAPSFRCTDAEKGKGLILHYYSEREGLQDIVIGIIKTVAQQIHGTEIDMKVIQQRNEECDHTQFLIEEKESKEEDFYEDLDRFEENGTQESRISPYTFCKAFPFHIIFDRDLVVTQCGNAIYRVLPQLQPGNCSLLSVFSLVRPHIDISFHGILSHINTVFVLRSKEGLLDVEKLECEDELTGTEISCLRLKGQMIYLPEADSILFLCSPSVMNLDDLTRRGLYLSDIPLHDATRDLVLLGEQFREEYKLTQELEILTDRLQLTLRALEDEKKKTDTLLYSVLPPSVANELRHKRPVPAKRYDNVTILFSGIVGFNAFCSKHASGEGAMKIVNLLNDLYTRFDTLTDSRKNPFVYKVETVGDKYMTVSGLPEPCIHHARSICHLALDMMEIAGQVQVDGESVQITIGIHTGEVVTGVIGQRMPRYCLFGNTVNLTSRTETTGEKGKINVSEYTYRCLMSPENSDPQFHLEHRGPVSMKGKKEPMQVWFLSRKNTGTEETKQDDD

SMILES	solubility at 24 h (physchem; [3])	solubility at 24 h (physchem; [4])	solubility at 24 h (physchem; [5])	Metabolic stability (Qh %), % hepatic blood flow [1]	EC50 [2]
Cc1ccc(OCc2cc(C)c3c(c2C)CCN(C2CCCOC2)C3)c(-c2csc(N3CC[C@@]4(C(=O)O)C[C@H]4C3)n2)c1 (stereo partly drawn) [Compound 128]	120 µg/mL (≈ 204 µM)	6.3 µg/mL (≈ 10.7 µM)	0.3 µg/mL (≈ 0.51 µM)	<24%	9 nM
Cc1ccc(OCc2cc(C)c3c(c2C)CCN(C2CCOC2)C3)c(-c2csc(N3CC[C@@]4(C(=O)O)C[C@H]4C3)n2)c1 (stereo partly drawn) [Compound 129]	120 µg/mL (≈ 209 µM)	7.7 µg/mL (≈ 13.4 µM)	0.49 µg/mL (≈ 0.854 µM)	<24%	6 nM
Cc1ccc(OCc2ccc3c(c2C)CCN(C2CCOCC2)CC3)c(-c2csc(N3CC[C@@]4(C(=O)O)C[C@H]4C3)n2)c1 [Compound 130]	120 µg/mL (≈ 204 µM)	20 µg/mL (≈ 34 µM)	2.9 µg/mL (≈ 4.93 µM)	<24%	6 nM
Cc1ccc(OCc2ccc3c(c2C)CCN(CC2COCCO2)CC3)c(-c2csc(N3CC[C@@]4(C(=O)O)C[C@H]4C3)n2)c1 (stereo partly drawn) [Compound 132]	110 µg/mL (≈ 182 µM)	23 µg/mL (≈ 38.1 µM)	3.1 µg/mL (≈ 5.13 µM)	46%	22 nM
Cc1ccc(OCc2ccc3c(c2C)CCN(C2CCOC2)CC3)c(-c2csc(N3CC[C@@]4(C(=O)O)C[C@H]4C3)n2)c1 (stereo partly drawn) [Compound 133]	90 µg/mL (≈ 157 µM)	12 µg/mL (≈ 20.9 µM)	1.6 µg/mL (≈ 2.79 µM)	43%	18 nM
Cc1ccc(OCc2ccc3c(c2C)CCN(C2CCCOC2)CC3)c(-c2csc(N3CC[C@@]4(C(=O)O)C[C@H]4C3)n2)c1 (stereo partly drawn) [Compound 134]	110 µg/mL (≈ 187 µM)	8.5 µg/mL (≈ 14.5 µM)	0.95 µg/mL (≈ 1.62 µM)	53%	11 nM
Cc1cccc(-c2csc(N3C[C@@H]4C[C@]4(C(=O)O)C3)n2)c1OCc1ccc2c(c1)CCN(C1CCOCC1)C2 [Compound 135]	100 µg/mL (≈ 183 µM)	70 µg/mL (≈ 128 µM)	56 µg/mL (≈ 103 µM)	<24%	39 nM
Cc1cccc(-c2csc(N3C[C@@H]4C[C@]4(C(=O)O)C3)n2)c1OCc1ccc2c(c1C)CCN(C1CCOCC1)C2 [Compound 136]	110 µg/mL (≈ 197 µM)	76 µg/mL (≈ 136 µM)	62 µg/mL (≈ 111 µM)	<24%	18 nM
Cc1cccc(-c2csc(N3C[C@@H]4C[C@]4(C(=O)O)C3)n2)c1OCc1ccc2c(c1C)CCN(C1CCC1)C2 [Compound 137]	100 µg/mL (≈ 189 µM)	71 µg/mL (≈ 134 µM)	51 µg/mL (≈ 96.3 µM)	32%	67 nM
Cc1cccc(-c2csc(N3C[C@@H]4C[C@]4(C(=O)O)C3)n2)c1OCc1ccc2c(c1C)CCN(C1COC1)C2 [Compound 138]	100 µg/mL (≈ 188 µM)	59 µg/mL (≈ 111 µM)	65 µg/mL (≈ 122 µM)	<24%	18 nM
Cc1cc(COc2c(C)cccc2-c2csc(N3C[C@@H]4C[C@]4(C(=O)O)C3)n2)cc2c1CN(C1COC1)CC2 [Compound 139]	96 µg/mL (≈ 181 µM)	58 µg/mL (≈ 109 µM)	59 µg/mL (≈ 111 µM)	<24%	7 nM
Cc1cc(COc2c(C)cccc2-c2csc(N3C[C@@H]4C[C@]4(C(=O)O)C3)n2)cc2c1CN(C1CCOCC1)CC2 [Compound 140]	100 µg/mL (≈ 179 µM)	73 µg/mL (≈ 130 µM)	60 µg/mL (≈ 107 µM)	<24%	5 nM
Cc1cccc(-c2csc(N3C[C@@H]4C[C@]4(C(=O)O)C3)n2)c1OCc1cc(C#N)c2c(c1)CCN(C1COC1)C2 [Compound 141]	110 µg/mL (≈ 203 µM)	38 µg/mL (≈ 70 µM)	81 µg/mL (≈ 149 µM)	<24%	34 nM
Cc1cccc(-c2csc(N3C[C@@H]4C[C@]4(C(=O)O)C3)n2)c1OCc1cc(C#N)c2c(c1)CCN(C1CCOCC1)C2 [Compound 142]	110 µg/mL (≈ 193 µM)	69 µg/mL (≈ 121 µM)	69 µg/mL (≈ 121 µM)	<24%	23 nM
Cc1cccc(-c2csc(N3C[C@@H]4C[C@]4(C(=O)O)C3)n2)c1OCc1ccc2c(c1C)CCN(C1COC1)CC2 [Compound 143]	110 µg/mL (≈ 202 µM)	70 µg/mL (≈ 128 µM)	56 µg/mL (≈ 103 µM)	<24%	9 nM
Cc1cccc(-c2csc(N3C[C@@H]4C[C@]4(C(=O)O)C3)n2)c1OCc1ccc2c(c1C)CCN(C1CCOCC1)CC2 [Compound 144]	110 µg/mL (≈ 192 µM)	74 µg/mL (≈ 129 µM)	62 µg/mL (≈ 108 µM)	<24%	10 nM
Cc1ccc(OCc2ccc3c(c2)CCN(C2CCOCC2)C3)c(-c2csc(N3C[C@@H]4C[C@]4(C(=O)O)C3)n2)c1 [Compound 145]	110 µg/mL (≈ 202 µM)	62 µg/mL (≈ 114 µM)	28 µg/mL (≈ 51.3 µM)	<24%	162 nM
Cc1ccc(OCc2ccc3c(c2C)CCN(C2CCOCC2)C3)c(-c2csc(N3C[C@@H]4C[C@]4(C(=O)O)C3)n2)c1 [Compound 146]	110 µg/mL (≈ 197 µM)	59 µg/mL (≈ 105 µM)	9.9 µg/mL (≈ 17.7 µM)	26%	57 nM
Cc1ccc(OCc2ccc3c(c2)CCN(C2CCOCC2)CC3)c(-c2csc(N3C[C@@H]4C[C@]4(C(=O)O)C3)n2)c1 [Compound 147]	> 140 µg/mL	< 0.1 µg/mL	< 0.1 µg/mL	<24%	49 nM
Cc1ccc(OCc2ccc3c(c2)CCN(C2COC2)CC3)c(-c2csc(N3C[C@@H]4C[C@]4(C(=O)O)C3)n2)c1 [Compound 148]	93 µg/mL (≈ 175 µM)	8.4 µg/mL (≈ 15.8 µM)	1.1 µg/mL (≈ 2.07 µM)	<24%	67 nM
Cc1ccc(OCc2ccc3c(c2C)CCN(C2COC2)CC3)c(-c2csc(N3C[C@@H]4C[C@]4(C(=O)O)C3)n2)c1 [Compound 149]	98 µg/mL (≈ 180 µM)	37 µg/mL (≈ 67.8 µM)	35 µg/mL (≈ 64.1 µM)	<24%	34 nM
Cc1ccc(OCc2ccc3c(c2C)CCN(C2CCOCC2)CC3)c(-c2csc(N3C[C@@H]4C[C@]4(C(=O)O)C3)n2)c1 [Compound 150]	100 µg/mL (≈ 174 µM)	44 µg/mL (≈ 76.7 µM)	9.7 µg/mL (≈ 16.9 µM)	<24%	24 nM
Cc1cc(C)c(OCc2ccc3c(c2)CCN(C2CCOCC2)C3)c(-c2csc(N3C[C@@H]4C[C@]4(C(=O)O)C3)n2)c1 [Compound 151]	110 µg/mL (≈ 197 µM)	71 µg/mL (≈ 127 µM)	54 µg/mL (≈ 96.5 µM)	<24%	135 nM
Cc1cc(C)c(OCc2ccc3c(c2C)CCN(C2CCOCC2)C3)c(-c2csc(N3C[C@@H]4C[C@]4(C(=O)O)C3)n2)c1 [Compound 152]	110 µg/mL (≈ 192 µM)	70 µg/mL (≈ 122 µM)	53 µg/mL (≈ 92.4 µM)	<24%	71 nM
